One experiment concerns the target T1, sGC α1/β1 heterodimer stably expressed in CHO-K1 cell line (CHO-K1/sGC) (Homo sapiens, UniProt Q02108+Q02153).
T1 construct: expressed in transfected cells
T1 sequence (Q02108 1-690): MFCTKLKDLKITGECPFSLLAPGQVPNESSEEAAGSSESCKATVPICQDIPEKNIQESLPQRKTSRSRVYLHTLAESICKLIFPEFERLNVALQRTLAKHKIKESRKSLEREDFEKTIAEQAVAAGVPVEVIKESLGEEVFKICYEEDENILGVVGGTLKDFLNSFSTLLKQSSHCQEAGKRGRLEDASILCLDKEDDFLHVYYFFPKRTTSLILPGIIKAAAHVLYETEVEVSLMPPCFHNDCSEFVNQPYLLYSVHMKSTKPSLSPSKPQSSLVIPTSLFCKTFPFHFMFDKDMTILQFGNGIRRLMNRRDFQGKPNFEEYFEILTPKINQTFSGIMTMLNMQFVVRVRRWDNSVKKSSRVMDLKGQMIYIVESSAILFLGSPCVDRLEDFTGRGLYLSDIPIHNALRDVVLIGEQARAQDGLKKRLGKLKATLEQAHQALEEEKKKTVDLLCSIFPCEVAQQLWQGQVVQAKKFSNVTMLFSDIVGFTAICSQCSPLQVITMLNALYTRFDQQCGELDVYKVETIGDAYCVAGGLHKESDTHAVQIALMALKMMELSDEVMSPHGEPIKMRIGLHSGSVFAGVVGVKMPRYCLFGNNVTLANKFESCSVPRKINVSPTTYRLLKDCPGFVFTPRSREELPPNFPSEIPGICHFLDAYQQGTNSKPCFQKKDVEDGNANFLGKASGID
T1 sequence (Q02153 1-619): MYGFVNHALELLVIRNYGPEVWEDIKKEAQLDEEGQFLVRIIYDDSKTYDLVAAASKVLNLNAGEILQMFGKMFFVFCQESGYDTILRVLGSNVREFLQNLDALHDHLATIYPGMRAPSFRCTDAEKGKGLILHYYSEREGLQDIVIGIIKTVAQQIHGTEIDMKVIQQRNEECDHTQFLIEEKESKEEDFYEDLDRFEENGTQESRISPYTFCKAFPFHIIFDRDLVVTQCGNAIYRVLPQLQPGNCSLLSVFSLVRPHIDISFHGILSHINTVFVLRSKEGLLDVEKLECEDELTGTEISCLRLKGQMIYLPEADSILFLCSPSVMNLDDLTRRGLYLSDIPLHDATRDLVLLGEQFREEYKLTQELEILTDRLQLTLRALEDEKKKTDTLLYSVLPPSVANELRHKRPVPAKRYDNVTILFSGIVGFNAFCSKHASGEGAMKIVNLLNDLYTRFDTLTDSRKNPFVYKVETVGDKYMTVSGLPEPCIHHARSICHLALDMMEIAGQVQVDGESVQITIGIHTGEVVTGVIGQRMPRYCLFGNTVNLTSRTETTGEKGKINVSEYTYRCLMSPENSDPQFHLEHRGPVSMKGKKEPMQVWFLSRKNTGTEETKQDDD
The experiment in a line: Cell-based sGC Functional Assay (CASA Assay), cGMP generation. The note with it: CHO-K1/sGC cells, 1 hr at 37° C., cGMP by HTRF, 4P fit; presence or absence of 1 μM DETA-NO not given; read-out: IP (nM) (inflection point). In a few lines: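 CHO-K1 cells stably expressing human sGC α1/β1 (4×10^5/mL, 0.5 mM IBMX) were treated with compounds (2.5% DMSO final) ± 1 μM DETA-NO for 1 hr at 37° C. Intracellular cGMP measured by HTRF. Activity expressed as % of Compound A maximal cGMP; IP and maximum fold induction from 4P fit.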
In general terms: In TR-FRET formats the signal depends on donor and acceptor labels being close together.
Take `CC1(c2ccc(O)cn2)C(=O)Nc2nc(-c3cn4ncnc4c(CCCC(F)(F)F)n3)nc(N)c21` (centres unmarked) [Example 111A, 4-amino-5-(5-hydroxypyridin-2-yl)-5-methyl-2-(8-(4,4,4-trifluorobutyl)-[1,2,4]triazolo[1,5-a]pyrazin-6-yl)-5H-pyrrolo[2,3-d]pyrimidin-6(7H)-one]: the EC50 amounted to 370 nM.
With `CC1(c2ccc(Cl)c(F)c2)C(=O)Nc2nc(-c3cn4ncnc4c(CCC(F)(F)F)n3)nc(N)c21` (centres unmarked) [Example 75B, 4-amino-5-(4-chloro-3-fluorophenyl)-5-methyl-2-(8-(3,3,3-trifluoropropyl)-[1,2,4]triazolo[1,5-a]pyrazin-6-yl)-5H-pyrrolo[2,3-d]pyrimidin-6(7H)-one], the EC50 came to 20 nM.
For the molecule `CC1(c2ccc(F)cn2)C(=O)Nc2nc(-c3cn4ncnc4c(CCCC(F)(F)F)n3)nc(N)c21` (centres unmarked) [Example 22B, 4-amino-5-(5-fluoropyridin-2-yl)-5-methyl-2-(8-(4,4,4-trifluorobutyl)-[1,2,4]triazolo[1,5-a]pyrazin-6-yl)-5H-pyrrolo[2,3-d]pyrimidin-6(7H)-one], the EC50 turned out to be 38.3 nM.
Same read-out and setting: to `CCCCc1nc(-c2nc(N)c3c(n2)NC(=O)C3(c2ccc(C)cn2)C2CC2)cn2ncnc12` (racemic) [Example 72B, 4-amino-2-(8-butyl-[1,2,4]triazolo[1,5-a]pyrazin-6-yl)-5-cyclopropyl-5-(5-methylpyridin-2-yl)-5H-pyrrolo[2,3-d]pyrimidin-6(7H)-one] belongs 28.5 nM; to `CC1(c2cccc(F)c2)C(=O)Nc2nc(-c3cn4ncnc4c(CCC(F)(F)C(F)(F)F)n3)nc(O)c21` (centres unmarked) [Example 129B, 5-(3-fluorophenyl)-4-hydroxy-5-methyl-2-(8-(3,3,4,4,4-pentafluorobutyl)-[1,2,4]triazolo[1,5-a]pyrazin-6-yl)-5,7-dihydro-6H-pyrrolo[2,3-d]pyrimidin-6-one], 51.7 nM.
On the same count and under the same terms, in the case of `CCCCc1nc(-c2nc(N)c3c(n2)NC(=O)C3(C)c2ccc(Cl)cn2)cn2ncnc12` (centres unmarked) [Example 69A, 4-amino-2-(8-butyl-[1,2,4]triazolo[1,5-a]pyrazin-6-yl)-5-(5-chloropyridin-2-yl)-5-methyl-5H-pyrrolo[2,3-d]pyrimidin-6(7H)-one] it was 13.7 nM.
Take `CC1(c2nnc(C(F)F)o2)C(=O)Nc2nc(-c3cn4ncnc4c(CCCC(F)(F)F)n3)nc(N)c21` (centres unmarked) [Example 100A, 4-amino-5-(5-(difluoromethyl)-1,3,4-oxadiazol-2-yl)-5-methyl-2-(8-(4,4,4-trifluorobutyl)-[1,2,4]triazolo[1,5-a]pyrazin-6-yl)-5H-pyrrolo[2,3-d]pyrimidin-6(7H)-one]: the EC50 is 127 nM.
Take `CCCc1nc(-c2nc(N)c3c(n2)NC(=O)C3(C)c2ccc(F)cn2)cn2nc(C)nc12` (centres unmarked) [Example 92B, 4-amino-5-(5-fluoropyridin-2-yl)-5-methyl-2-(2-methyl-8-propyl-[1,2,4]triazolo[1,5-a]pyrazin-6-yl)-5H-pyrrolo[2,3-d]pyrimidin-6(7H)-one]: the EC50 is 4830 nM.
The same measure, in the same setting: to `C[C@@]1(c2ccc(F)cc2)C(=O)Nc2nc(-c3cn4ncnc4c(CCC(F)(F)F)n3)nc(O)c21` [Example 151A, (S)-5-(4-fluorophenyl)-4-hydroxy-5-methyl-2-(8-(3,3,3-trifluoropropyl)-[1,2,4]triazolo[1,5-a]pyrazin-6-yl)-5,7-dihydro-6H-pyrrolo[2,3-d]pyrimidin-6-one] belongs 1490 nM.
Consider `CC1(c2ccc(Cl)cn2)C(=O)Nc2nc(-c3cn4ncnc4c(CCCC(F)(F)F)n3)nc(N)c21` (centres unmarked) [Example 26A, 4-amino-5-(5-chloropyridin-2-yl)-5-methyl-2-(8-(4,4,4-trifluorobutyl)-[1,2,4]triazolo[1,5-a]pyrazin-6-yl)-5H-pyrrolo[2,3-d]pyriniidin-6(7H)-one], for which the EC50 turned out to be 27.8 nM.
On the same count and under the same terms, to `CC1(c2ccccc2)C(=O)Nc2nc(-c3cn4ncnc4c(CCCC(F)(F)F)n3)nc(N)c21` (centres unmarked) [Example 37B, 4-amino-5-methyl-5-phenyl-2-(8-(4,4,4-trifluorobutyl)-[1,2,4]triazolo[1,5-a]pyrazin-6-yl)-5H-pyrrolo[2,3-d]pyrimidin-6(7H)-one] belongs 11.5 nM; to `CCCCc1nc(-c2nc(O)c3c(n2)NC(=O)C3(C)c2ccc(Cl)c(F)c2)cn2ncnc12` (centres unmarked) [Example 156B, 2-(8-butyl-[1,2,4]triazolo[1,5-a]pyrazin-6-yl)-5-(4-chloro-3-fluorophenyl)-4-hydroxy-5-methyl-5H-pyrrolo[2,3-d] pyrimidin-6(7H)-one], 23.3 nM.
Take `CC1(c2ccccc2)C(=O)Nc2nc(-c3cn4ncnc4c(CCC(F)(F)C(F)(F)F)n3)nc(O)c21` (centres unmarked) [Example 128B, 4-hydroxy-5-methyl-2-(8-(3,3,4,4,4-pentafluorobutyl)-[1,2,4]triazolo[1,5-a]pyrazin-6-yl)-5-phenyl-5H-pyrrolo[2,3-d]pyrimidin-6(7H)-one]: the EC50 turned out to be 128 nM.
Same read-out and setting: in the case of `Nc1nc(-c2cn3ncnc3c(CCC(F)(F)F)n2)nc2c1C(c1ccc(F)c(F)c1)(C1CC1)C(=O)N2` (centres unmarked) [Example 83A, 4-amino-5-cyclopropyl-5-(3,4-difluorophenyl)-2-(8-(3,3,3-trifluoropropyl)-[1,2,4]triazolo[1,5-a]pyrazin-6-yl)-5H-pyrrolo[2,3-d]pyrimidin-6(7H)-one] it was 270 nM; in that of `CC1(c2ccc(C(F)F)cn2)C(=O)Nc2nc(-c3cn4ncnc4c(CCCC(F)(F)F)n3)nc(O)c21` (centres unmarked) [Example 181A, 4-hydroxy-5-(5-(difluoromethyl)pyridin-2-yl)-5-methyl-2-(8-(4,4,4-trifluorobutyl)-[1,2,4]triazolo[1,5-a]pyrazin-6-yl)-5H-pyrrolo[2,3-d]pyrimidin-6(7H)-one], 749 nM; in that of `Cc1ccc(C2(C3CC3)C(=O)Nc3nc(-c4cn5ncnc5c(CCC(F)(F)C(F)(F)F)n4)nc(N)c32)nc1` (racemic) [Example 17B, 4-amino-5-cyclopropyl-5-(5-methylpyridin-2-yl)-2-(8-(3,3,4,4,4-pentafluorobutyl)-[1,2,4]triazolo[1,5-a]pyrazin-6-yl)-5H-pyrrolo[2,3-d]pyrimidin-6(7H)-one], 36.1 nM.
Same read-out and setting: in the case of `CC1(c2cncc(F)c2)C(=O)Nc2nc(-c3cn4ncnc4c(CCC(F)(F)C(F)(F)F)n3)nc(O)c21` (centres unmarked) [Example 125A, 5-(5-fluoropyridin-3-yl)-4-hydroxy-5-methyl-2-(8-(3,3,4,4,4-pentafluorobutyl)-[1,2,4]triazolo[1,5-a]pyrazin-6-yl)-5H-pyrrolo[2,3-d]pyrimidin-6(7H)-one] it was 575 nM; in that of `C[C@@]1(c2ccc(F)cc2)C(=O)Nc2nc(-c3cn4ncnc4c(CCC(F)(F)F)n3)nc(N)c21` [Example 74A, (S)-4-amino-5-(4-fluorophenyl)-5-methyl-2-(8-(3,3,3-trifluoropropyl)-[1,2,4]triazolo[1,5-a]pyrazin-6-yl)-5,7-dihydro-6H-pyrrolo[2,3-d]pyrimidin-6-one], 55.6 nM; in that of `COc1ccc(C2(C)C(=O)Nc3nc(-c4cn5ncnc5c(CCCC(F)(F)F)n4)nc(O)c32)nc1` (centres unmarked) [Example 148A, 4-hydroxy-5-(5-methoxypyridin-2-yl)-5-methyl-2-(8-(4,4,4-trifluorobutyl)-[1,2,4]triazolo[1,5-a]pyrazin-6-yl)-5H-pyrrolo[2,3-d]pyrimidin-6(7H)-one], 1090 nM.

Still in this experiment, the particulars now being: CHO-K1/sGC cells, 1 hr at 37° C., cGMP by HTRF; presence or absence of 1 μM DETA-NO not given; read-out: % Act. (percent activation relative to maximum cGMP production of Compound A = 100%).
With `Nc1nc(-c2cn3ncnc3c(CCC(F)(F)F)n2)nc2c1C(c1ccc(F)c(F)c1)(C1CC1)C(=O)N2` (centres unmarked) [Example 83A, 4-amino-5-cyclopropyl-5-(3,4-difluorophenyl)-2-(8-(3,3,3-trifluoropropyl)-[1,2,4]triazolo[1,5-a]pyrazin-6-yl)-5H-pyrrolo[2,3-d]pyrimidin-6(7H)-one], the Emax stood at 100%.

Source of the values: patent US9822130B2, “Triazolo-pyrazinyl derivatives useful as soluble guanylate cyclase activators” (Merck Sharp & Dohme Corp., priority 2014, dated 2017).
